Literature values as cited in patent publication US10603401B2, “Dressing system” (Edixomed Limited, priority 2015, dated 2020).

Details: healthy 70 kg-adult

First: CCCCNc1ccc(C(=O)OCCN(C)C)cc1 [tetracaine]
Second: CCN(CC)CC(=O)Nc1c(C)cccc1C [lidocaine]
The “Generally accepted safe dosage for topical anaesthesia” value of the first is lower: 50 mg for the first, 750 mg for the second.

In the case of COC(=O)[C@H]1[C@@H](OC(=O)c2ccccc2)C[C@@H]2CC[C@H]1N2C [cocaine], the “Generally accepted safe dosage for topical anaesthesia” value is given as 200 mg.
